Reference: patent US8778340B2, “Anti-angiogenesis therapy for the treatment of ovarian cancer” (priority 2010, dated 2014)

Assays:
[1] = system: newly diagnosed high risk FIGO stage I-IIa and stage IIb-IV epithelial ovarian, fallopian tube or primary peritoneal cancer; assay: ICON7 phase III randomized two-arm trial of adding bevacizumab to carboplatin and paclitaxel (Example 2); format: in vivo, human; settings: for PFS hazard ratio (HR) (95% CI): CPB7.5+ versus CP, Log-Rank Test p 0.0010
Text: Results are presented from a phase III randomized study (ICON7) to evaluate the safety and efficacy of adding bevacizumab to standard chemotherapy with carboplatin and paclitaxel. The primary endpoint was to determine whether the addition of bevacizumab to standard chemotherapy improves progression free survival (PFS) when compared to standard chemotherapy alone in women with newly diagnosed, histologically confirmed, high risk International Federation of Gynaecology and Obstetrics (FIGO) stage I and IIa (Grade 3 or clear cell carcinoma only) and FIGO stage IIb-IV (all grades and all histological types) epithelial ovarian, fallopian tube or primary peritoneal cancer, who have undergone initial surgery (either debulking cytoreductive surgery or a biopsy if the patient has FIGO stage IV disease) and who would not be considered for cytoreductive surgery prior to disease progression. Secondary endpoints included overall survival (OS), response rate, duration of response, biological progression free interval (defined by increasing CA 125 or PFIBIO), safety and quality of life. ICON7 was a 2-arm randomized clinical trial comparing standard therapy (carboplatin and paclitaxel) with one investigational arm incorporating bevacizumab in combination with paclitaxel and carboplatin (see FIG. 8). A total of 1528 eligible women participated in the trial.
ICON7 included patients with newly diagnosed, histologically confirmed, high risk FIGO stage I and IIa (Grade 3 or clear cell carcinoma only) and FIGO stage IIb-IV (all grades and all histological types) epithelial ovarian, fallopian tube or primary peritoneal cancer, who have undergone initial surgery (either debulking cytoreductive surgery or a biopsy if the patient has FIGO stage IV disease) and who will not be considered for cytoreductive surgery prior to disease progression. Patients with measurable and non-measurable disease are eligible. Patients were considered eligible for enrollment in this trial if they fulfilled all the inclusion criteria and none of the exclusion criteria as described below:
Tumor assessments, either by CT or MRI scan, with measurements using the RECIST criteria, were performed after three and six cycles of chemotherapy, and at around nine months and 12 months in the first year, or after cycle 12 and cycle 18 of treatment for patients on the research arm. In the second and third year of the trial tumour assessments were repeated every six months and thereafter as clinically indicated. These scans were performed irrespective of whether the patient has been optimally or sub-optimally debulked, and irrespective of whether there is measurable disease, or not, on the baseline scan.
Patients were clinically assessed and CA 125 measured at the start of every chemotherapy cycle and then six weekly during the first year of the trial. In the second and third year of the trial patients were assessed and CA 125 measured every three months. In the fourth and fifth year patients were clinically assessed and CA 125 measured every six months. Thereafter assessments were yearly. Progression based on CA 125 criteria alone were verified with a CT scan. If this was negative then it was repeated at the time of suspected clinical progression.
Regular physical examination and routine blood tests were performed during treatment to monitor patient safety. Quality of life (QoL) were assessed using the EORTC QLQ C-30+OV-28 and EQ-5D questionnaires at the start of every chemotherapy cycle, every six weeks until the end of the first year and then every three months until treatment for progression commenced, or to the end of year two. An additional QoL form was completed by all patients still alive three years after randomisation. Adverse events and medical resource use were documented during the study treatment and follow-up period.

[2] = system: platinum-sensitive recurrent epithelial ovarian, primary peritoneal, or fallopian tube carcinoma; assay: OCEANS phase III placebo-controlled trial of carboplatin and gemcitabine plus bevacizumab (Example 3); format: in vivo, human
Procedure: This example describes a placebo-controlled, randomized, multicenter Phase III study evaluating the efficacy and safety of bevacizumab (15 mg/kg, Day 1, every 21 days), administered in combination with carboplatin (area under the curve [AUC] 4, Day 1, every 21 days) with gemcitabine (1000 mg/m2, Day 1 and Day 8, every 21 days) in women with platinum sensitive recurrent epithelial ovarian, primary peritoneal, or fallopian tube carcinoma. About 480 patients were enrolled over a period of approximately 2.5 years. Patients were randomized in either carboplatin and gemcitabine with placebo versus carboplatin and gemcitabine with bevacizumab. […]
This phase III study of bevacizumab plus chemotherapy in women with ovarian cancer met its primary endpoint. […] PFS is defined as the time from randomization to disease progression as determined by the investigator or death due to any cause, whichever occurs first. The primary endpoint of PFS was assessed by the study investigators. Measurable disease was investigator assessed using modified RECIST (Therasse et al. 2000), e.g., every 9 weeks throughout the course of the study. […]

[3] = system: newly diagnosed, previously untreated, stage III or IV epithelial ovarian, primary peritoneal or fallopian tube cancer; assay: Phase III trial of carboplatin and paclitaxel plus placebo versus plus concurrent bevacizumab versus plus concurrent and extended bevacizumab (Example 1, GOG 0218); format: in vivo, human; settings: preliminary assessment of safety
Text: Primary Objectives include to determine if the addition of 5 concurrent cycles of bevacizumab to 6 cycles of standard therapy (carboplatin and paclitaxel) [Arm II] increases the duration of progression-free survival (PFS) when compared to 6 cycles of standard therapy alone [Arm I] in women with newly diagnosed stage III (with any gross residual disease) and stage IV, epithelial ovarian, peritoneal primary or fallopian tube cancer; and, to determine if the addition of 5 concurrent cycles of bevacizumab plus extended bevacizumab for 16 cycles beyond the 6 cycles of standard therapy (carboplatin and paclitaxel) [Arm III] increases progression-free survival when compared to 6 cycles of standard therapy [Arm I] in women with newly diagnosed stage III (with any gross residual disease) and stage IV, epithelial ovarian, peritoneal primary or fallopian tube cancer.
In this study two experimental arms were selected to compare with standard cytotoxic chemotherapy with paclitaxel and carboplatin: one incorporating 5 cycles of bevacizumab (concurrent bevacizumab) and the other with bevacizumab for an additional 16 cycles after completion of chemotherapy with paclitaxel and carboplatin (extended bevacizumab). Calvert Formula for Carboplatin (AUC) Dosing: Total dose(mg)=target AUC(in mg/mL/minute)*[GFR(in mL/minute)+25]. […]

[4] = system: persistent or recurrent epithelial ovarian cancer or primary peritoneal cancer; settings: 15 mg/kg every 21 days, cited from earlier work
[5] = system: platinum resistant ovarian cancer or primary peritoneal serous cancer; settings: same dose and schedule as GOG 170-D; 44 patients; cited from earlier work

CPB7.5+: ICON7 chemotherapy plus bevacizumab arm (Arm B), bevacizumab continued as maintenance for a total duration of 12 months
PFS hazard ratio (HR) (95% CI) [1]: 0.79 (0.68; 0.91) | PFS hazard ratio (HR) (95% CI) ([1]; listed as paclitaxel, carboplatin and anti-VEGF antibody): 0.79 | All Deaths ([1]; number of patients (percent)): 107 (14.3%) | All Related Deaths ([1]; number of patients (percent)): 5 (0.7%) | Deaths not due to Progression ([1]; number of patients (percent)): 19 (2.5%) | Pts w. Grade 3/4/5 AE ([1]; number of patients (percent)): 479 (64.2%) | Pts w. Serious AE ([1]; number of patients (percent)): 279 (37.4%) | Pts who Disc. Any Treatment ([1]; number of patients (percent)): 293 (39.3%) | Pts who Disc. Any Treatment due to AE ([1]; number of patients (percent)): 162 (21.7%) | PFS median ([1]; primary analysis of PFS): 18.3 months | difference in median PFS ([1]; versus paclitaxel and carboplatin alone): 2.3 months

bevacizumab plus chemotherapy: OCEANS: Avastin 15 mg/kg with carboplatin and gemcitabine, followed by Avastin alone until disease progression
progression-free survival compared to chemotherapy alone ([2]; investigator assessed, modified RECIST, followed by bevacizumab alone until disease progression): increased

bevacizumab: recombinant humanized anti-VEGF monoclonal antibody; human IgG1 framework with CDRs from murine antibody A.4.6.1
tolerability of the treatment regimen / adverse events [3]: generally well tolerated | preliminary assessment of adverse events ([1]; in vivo): consistent with previous studies | safety findings / adverse events ([2]; in vivo): No new safety findings were observed | response rate ([4]; NCI RECIST): 21% | median PFS [4]: 4.7 months | progression-free for at least 6 months [4]: 40% | progression-free for at least 6 months [5]: 27% | responses [5]: 16%
